# In patent US9492471B2, “Methods of treating a disease or disorder associated with Bruton'S Tyrosine Kinase” (Celgene Avilomics Research, Inc., priority 2013, dated 2016):
# Like-named read-outs stand apart in the source and are kept apart here.
# Key:
# Assay in all cases: HotSpot kinase profiling
# Type in all cases: biochemical
# AKT1 = biological target: T1, AKT1 (Homo sapiens, UniProt P31749)
# T1 construct: purchased Reaction Biology Corp
# Summary of the method: (§1)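 Radiometric kinase assay with P81 filter capture; each kinase was added to fresh substrate plus cofactors in reaction buffer and incubated 2 h at room temperature. Unreacted phosphate was washed off with 0.1% phosphoric acid before detection; percent inhibition is relative to DMSO control, averaged over replicates.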
# Aurora B = biological target: T2, Aurora B (Homo sapiens, UniProt Q96GD4)
# T2 construct: purchased Reaction Biology Corp
# T2 sequence (Q96GD4 whole entry): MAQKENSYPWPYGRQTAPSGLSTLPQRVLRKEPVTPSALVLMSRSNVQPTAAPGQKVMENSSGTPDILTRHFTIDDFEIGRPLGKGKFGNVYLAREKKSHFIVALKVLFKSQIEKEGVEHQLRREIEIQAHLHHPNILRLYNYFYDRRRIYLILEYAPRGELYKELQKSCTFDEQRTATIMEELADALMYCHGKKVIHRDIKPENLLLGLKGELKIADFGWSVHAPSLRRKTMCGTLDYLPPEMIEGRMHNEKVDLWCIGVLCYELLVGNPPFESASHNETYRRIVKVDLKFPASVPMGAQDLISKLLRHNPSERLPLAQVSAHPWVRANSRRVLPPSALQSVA
# Summary of the method: as §1
# COT1/MAP3K8 = biological target: T3, COT1/MAP3K8 (Homo sapiens, UniProt P41279)
# T3 construct: purchased Reaction Biology Corp
# T3 sequence (P41279 whole entry): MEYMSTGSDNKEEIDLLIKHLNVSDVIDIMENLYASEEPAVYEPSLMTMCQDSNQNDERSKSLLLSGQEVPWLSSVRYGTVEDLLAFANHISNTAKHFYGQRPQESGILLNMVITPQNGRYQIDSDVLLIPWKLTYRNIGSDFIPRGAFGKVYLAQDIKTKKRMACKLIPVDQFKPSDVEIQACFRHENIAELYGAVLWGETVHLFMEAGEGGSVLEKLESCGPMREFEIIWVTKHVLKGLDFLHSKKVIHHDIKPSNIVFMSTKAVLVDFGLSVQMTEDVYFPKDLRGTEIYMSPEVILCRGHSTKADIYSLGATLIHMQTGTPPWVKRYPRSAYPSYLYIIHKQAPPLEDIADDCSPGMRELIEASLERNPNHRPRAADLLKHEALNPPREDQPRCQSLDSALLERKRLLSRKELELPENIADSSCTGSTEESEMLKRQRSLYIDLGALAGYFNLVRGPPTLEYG
# Summary of the method: as §1
# MARK3 = biological target: T4, MARK3 (Homo sapiens, UniProt P27448)
# T4 construct: purchased Reaction Biology Corp
# T4 sequence (P27448 whole entry): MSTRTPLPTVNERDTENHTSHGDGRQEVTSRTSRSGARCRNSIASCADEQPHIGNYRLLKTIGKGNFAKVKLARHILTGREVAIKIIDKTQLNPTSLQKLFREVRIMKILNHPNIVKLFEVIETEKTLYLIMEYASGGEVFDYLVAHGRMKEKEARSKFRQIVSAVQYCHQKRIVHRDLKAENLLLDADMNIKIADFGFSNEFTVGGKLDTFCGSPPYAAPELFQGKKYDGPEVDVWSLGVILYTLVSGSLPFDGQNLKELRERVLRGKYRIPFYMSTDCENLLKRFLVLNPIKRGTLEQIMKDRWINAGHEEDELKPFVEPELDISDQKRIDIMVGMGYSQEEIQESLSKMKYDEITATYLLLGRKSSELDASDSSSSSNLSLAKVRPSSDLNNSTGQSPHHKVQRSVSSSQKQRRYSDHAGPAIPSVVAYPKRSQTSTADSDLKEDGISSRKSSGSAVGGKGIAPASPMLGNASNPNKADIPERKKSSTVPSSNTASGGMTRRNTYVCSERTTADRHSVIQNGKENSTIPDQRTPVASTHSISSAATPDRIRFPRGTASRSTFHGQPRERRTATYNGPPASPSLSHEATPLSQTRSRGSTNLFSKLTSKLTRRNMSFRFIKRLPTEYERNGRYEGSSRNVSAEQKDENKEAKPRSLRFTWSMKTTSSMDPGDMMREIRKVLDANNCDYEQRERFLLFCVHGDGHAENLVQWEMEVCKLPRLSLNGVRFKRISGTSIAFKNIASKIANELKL
# Summary of the method: as §1
# MELK = biological target: T5, MELK (Homo sapiens, UniProt Q14680)
# T5 construct: purchased Reaction Biology Corp
# T5 sequence (Q14680 whole entry): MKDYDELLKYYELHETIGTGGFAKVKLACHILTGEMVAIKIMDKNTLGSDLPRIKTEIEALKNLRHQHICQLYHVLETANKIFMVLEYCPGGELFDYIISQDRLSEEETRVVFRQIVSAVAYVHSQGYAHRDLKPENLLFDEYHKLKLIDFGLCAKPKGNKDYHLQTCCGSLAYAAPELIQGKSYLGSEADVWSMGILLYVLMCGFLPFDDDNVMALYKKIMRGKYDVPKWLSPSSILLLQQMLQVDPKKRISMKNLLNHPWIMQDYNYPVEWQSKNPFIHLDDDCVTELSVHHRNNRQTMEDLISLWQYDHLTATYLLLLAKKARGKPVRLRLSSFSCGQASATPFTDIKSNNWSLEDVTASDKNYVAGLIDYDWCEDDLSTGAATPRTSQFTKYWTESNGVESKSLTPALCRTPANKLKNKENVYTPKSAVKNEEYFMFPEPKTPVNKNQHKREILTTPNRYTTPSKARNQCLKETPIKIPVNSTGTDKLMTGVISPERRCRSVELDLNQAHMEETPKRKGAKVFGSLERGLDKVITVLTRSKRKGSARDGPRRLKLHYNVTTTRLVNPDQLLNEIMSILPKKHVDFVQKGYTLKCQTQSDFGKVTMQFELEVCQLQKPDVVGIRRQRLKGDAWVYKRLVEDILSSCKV
# Summary of the method: as §1
# PLK4/SAK = biological target: T6, PLK4/SAK (Homo sapiens, UniProt O00444)
# T6 construct: purchased Reaction Biology Corp
# T6 sequence (O00444 1-970): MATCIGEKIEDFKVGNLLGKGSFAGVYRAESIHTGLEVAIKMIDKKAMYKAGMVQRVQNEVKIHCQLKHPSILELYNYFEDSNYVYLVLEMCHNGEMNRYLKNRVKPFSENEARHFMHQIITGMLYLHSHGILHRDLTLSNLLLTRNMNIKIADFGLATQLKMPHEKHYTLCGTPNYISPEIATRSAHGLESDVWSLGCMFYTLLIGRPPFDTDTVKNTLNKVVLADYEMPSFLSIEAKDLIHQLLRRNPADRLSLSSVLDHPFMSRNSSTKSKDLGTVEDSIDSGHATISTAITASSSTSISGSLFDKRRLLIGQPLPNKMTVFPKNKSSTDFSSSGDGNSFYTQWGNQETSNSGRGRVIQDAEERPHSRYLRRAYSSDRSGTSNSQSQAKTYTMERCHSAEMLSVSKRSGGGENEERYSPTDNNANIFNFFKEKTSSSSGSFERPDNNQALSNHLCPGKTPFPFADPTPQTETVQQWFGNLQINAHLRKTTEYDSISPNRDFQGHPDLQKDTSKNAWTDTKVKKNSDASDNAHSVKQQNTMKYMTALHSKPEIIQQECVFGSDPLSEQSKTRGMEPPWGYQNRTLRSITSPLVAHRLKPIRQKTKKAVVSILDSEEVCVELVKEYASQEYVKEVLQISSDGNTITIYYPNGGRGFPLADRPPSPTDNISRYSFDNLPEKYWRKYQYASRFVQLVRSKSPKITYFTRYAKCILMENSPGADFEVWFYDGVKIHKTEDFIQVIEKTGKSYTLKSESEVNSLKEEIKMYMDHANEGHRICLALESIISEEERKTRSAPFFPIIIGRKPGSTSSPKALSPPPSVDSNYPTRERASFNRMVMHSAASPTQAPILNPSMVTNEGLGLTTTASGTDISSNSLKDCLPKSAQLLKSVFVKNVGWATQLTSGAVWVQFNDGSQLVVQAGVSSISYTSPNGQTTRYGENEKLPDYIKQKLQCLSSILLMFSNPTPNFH
# Summary of the method: as §1
# RSK2 = biological target: T7, RSK2 (Homo sapiens, UniProt P51812)
# T7 construct: purchased Reaction Biology Corp
# T7 sequence (P51812 whole entry): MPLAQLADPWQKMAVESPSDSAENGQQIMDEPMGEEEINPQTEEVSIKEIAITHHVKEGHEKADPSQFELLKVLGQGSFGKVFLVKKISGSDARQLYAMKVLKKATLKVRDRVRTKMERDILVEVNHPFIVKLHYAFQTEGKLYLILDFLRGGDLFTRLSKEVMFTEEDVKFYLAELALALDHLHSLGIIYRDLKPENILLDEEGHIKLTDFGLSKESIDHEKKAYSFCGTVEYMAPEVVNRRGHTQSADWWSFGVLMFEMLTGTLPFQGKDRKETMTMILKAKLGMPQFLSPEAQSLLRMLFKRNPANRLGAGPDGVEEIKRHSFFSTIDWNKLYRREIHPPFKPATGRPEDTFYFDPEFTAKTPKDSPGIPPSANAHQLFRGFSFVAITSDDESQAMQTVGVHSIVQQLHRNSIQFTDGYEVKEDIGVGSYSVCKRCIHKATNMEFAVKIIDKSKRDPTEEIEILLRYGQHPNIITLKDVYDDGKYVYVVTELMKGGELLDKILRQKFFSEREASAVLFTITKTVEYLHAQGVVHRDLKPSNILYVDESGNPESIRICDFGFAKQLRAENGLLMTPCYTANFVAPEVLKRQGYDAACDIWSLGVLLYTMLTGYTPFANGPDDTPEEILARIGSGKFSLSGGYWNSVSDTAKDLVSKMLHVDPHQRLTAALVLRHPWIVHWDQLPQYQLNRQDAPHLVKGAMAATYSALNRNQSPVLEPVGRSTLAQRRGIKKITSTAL
# Summary of the method: as §1
# TYRO3/SKY = biological target: T8, TYRO3/SKY (Homo sapiens, UniProt Q06418)
# T8 construct: purchased Reaction Biology Corp
# T8 sequence (Q06418 41-890): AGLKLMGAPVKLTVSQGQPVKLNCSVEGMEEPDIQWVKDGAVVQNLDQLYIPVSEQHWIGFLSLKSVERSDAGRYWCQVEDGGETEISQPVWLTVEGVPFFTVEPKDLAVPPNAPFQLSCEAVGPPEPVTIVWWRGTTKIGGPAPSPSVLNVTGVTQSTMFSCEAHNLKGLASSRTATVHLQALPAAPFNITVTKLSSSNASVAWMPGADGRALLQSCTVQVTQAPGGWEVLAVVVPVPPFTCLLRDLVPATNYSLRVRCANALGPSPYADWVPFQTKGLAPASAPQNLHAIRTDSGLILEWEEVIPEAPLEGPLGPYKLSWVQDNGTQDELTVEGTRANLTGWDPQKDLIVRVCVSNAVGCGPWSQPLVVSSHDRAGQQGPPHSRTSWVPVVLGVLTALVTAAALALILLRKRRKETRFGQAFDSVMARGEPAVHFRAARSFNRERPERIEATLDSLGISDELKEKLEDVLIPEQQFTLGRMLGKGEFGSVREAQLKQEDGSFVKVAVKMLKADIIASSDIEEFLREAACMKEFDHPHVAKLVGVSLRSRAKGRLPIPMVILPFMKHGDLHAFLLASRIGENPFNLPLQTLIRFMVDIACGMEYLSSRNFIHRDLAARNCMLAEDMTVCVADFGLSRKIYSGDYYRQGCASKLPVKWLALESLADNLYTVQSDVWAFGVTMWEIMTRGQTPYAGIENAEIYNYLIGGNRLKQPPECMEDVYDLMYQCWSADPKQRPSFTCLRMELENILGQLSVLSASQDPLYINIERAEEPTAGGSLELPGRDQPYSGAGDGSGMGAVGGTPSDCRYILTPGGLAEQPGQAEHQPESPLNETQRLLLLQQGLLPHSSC
# Summary of the method: as §1
# [1] = read-out: % Enzyme Activity (relative to DMSO controls) Run 1
# [2] = read-out: % Enzyme Activity (relative to DMSO controls) Run 2
# T1 sequence (P31749 whole entry): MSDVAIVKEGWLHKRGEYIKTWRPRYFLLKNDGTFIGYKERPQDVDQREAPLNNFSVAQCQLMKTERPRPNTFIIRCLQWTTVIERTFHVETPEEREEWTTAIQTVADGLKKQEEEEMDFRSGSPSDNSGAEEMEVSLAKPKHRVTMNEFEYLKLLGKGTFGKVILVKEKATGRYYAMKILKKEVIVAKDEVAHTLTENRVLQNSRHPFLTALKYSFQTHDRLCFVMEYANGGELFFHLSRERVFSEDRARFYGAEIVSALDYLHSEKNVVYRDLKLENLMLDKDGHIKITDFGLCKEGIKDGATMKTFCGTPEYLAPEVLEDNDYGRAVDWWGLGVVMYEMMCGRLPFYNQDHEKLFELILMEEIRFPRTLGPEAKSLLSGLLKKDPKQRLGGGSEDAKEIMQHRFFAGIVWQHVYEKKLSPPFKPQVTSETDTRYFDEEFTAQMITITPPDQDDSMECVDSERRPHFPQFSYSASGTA
structure (smiles),measurement,setting,value
C=CC(=O)Nc1cccc(Nc2nc(Nc3ccc(OCCOC)c(F)c3)ncc2F)c1 [Compound 2],inhibition at 3 µM,AKT1,5.87%
same,remaining activity at 3 µM,AKT1; [1],95.1%
same,remaining activity at 3 µM,AKT1; [2],93.1%
same,inhibition at 3 µM,Aurora B,86.9%
same,remaining activity at 3 µM,Aurora B; [1],13.2%
same,remaining activity at 3 µM,Aurora B; [2],12.9%
same,inhibition at 3 µM,COT1/MAP3K8,-1.33%
same,remaining activity at 3 µM,COT1/MAP3K8; [1],102%
same,remaining activity at 3 µM,COT1/MAP3K8; [2],101%
same,inhibition at 3 µM,MARK3,-0.92%
same,remaining activity at 3 µM,MARK3; [1],101%
same,remaining activity at 3 µM,MARK3; [2],100%
same,inhibition at 3 µM,MELK,-8.07%
same,remaining activity at 3 µM,MELK; [1],109%
same,remaining activity at 3 µM,MELK; [2],107%
same,inhibition at 3 µM,PLK4/SAK,45%
same,remaining activity at 3 µM,PLK4/SAK; [1],54.8%
same,remaining activity at 3 µM,PLK4/SAK; [2],55.2%
same,inhibition at 3 µM,RSK2,16.6%
same,remaining activity at 3 µM,RSK2; [1],82.6%
same,remaining activity at 3 µM,RSK2; [2],84.3%
same,inhibition at 3 µM,TYRO3/SKY,4.03%
same,remaining activity at 3 µM,TYRO3/SKY; [1],95.1%
same,remaining activity at 3 µM,TYRO3/SKY; [2],96.8%
